Measurements from ChEMBL document CHEMBL5523729, “Development of Degraders of Cyclin-Dependent Kinases 4 and 6 Based on Rational Drug Design” (J Med Chem, 2024).
Calls of active or inactive are those of the source. No cut-off for these calls is given here.

Tests used:
[1] = target: T1, Protein cereblon/Cyclin-dependent kinase 4 (Homo sapiens, UniProt P11802+Q96SW2); assay: PROTAC activity at CDK4/CRBN in human Jurkat cells assessed as protein degradation by Western blot analysis; type: cell-based
Target sequence in this assay (P11802 whole entry): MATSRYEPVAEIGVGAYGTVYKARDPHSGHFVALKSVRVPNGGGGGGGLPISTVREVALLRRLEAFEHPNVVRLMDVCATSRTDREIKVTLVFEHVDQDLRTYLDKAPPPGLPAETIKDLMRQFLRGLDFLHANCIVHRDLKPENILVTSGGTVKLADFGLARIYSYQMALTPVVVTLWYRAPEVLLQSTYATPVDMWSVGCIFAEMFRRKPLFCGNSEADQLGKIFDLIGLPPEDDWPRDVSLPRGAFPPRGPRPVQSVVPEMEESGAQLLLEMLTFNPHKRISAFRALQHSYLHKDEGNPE
Target sequence in this assay (Q96SW2 whole entry): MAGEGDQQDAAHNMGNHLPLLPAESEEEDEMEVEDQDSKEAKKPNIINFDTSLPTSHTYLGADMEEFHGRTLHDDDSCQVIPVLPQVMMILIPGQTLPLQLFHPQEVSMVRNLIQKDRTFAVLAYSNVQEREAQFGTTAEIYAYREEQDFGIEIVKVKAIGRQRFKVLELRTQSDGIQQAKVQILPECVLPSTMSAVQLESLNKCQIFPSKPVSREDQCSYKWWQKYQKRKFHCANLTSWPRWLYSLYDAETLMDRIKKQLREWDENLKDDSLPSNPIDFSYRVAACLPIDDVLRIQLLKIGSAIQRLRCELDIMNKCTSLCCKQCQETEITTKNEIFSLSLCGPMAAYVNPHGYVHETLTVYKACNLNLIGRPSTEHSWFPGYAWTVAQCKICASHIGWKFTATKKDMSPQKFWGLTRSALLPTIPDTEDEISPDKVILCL

[2] = target: T2, Protein cereblon/Cyclin-dependent kinase 6 (Homo sapiens, UniProt Q00534+Q96SW2); assay: PROTAC activity at CDK6/CRBN in human Jurkat cells assessed as protein degradation by Western blot analysis; type: cell-based
Target sequence in this assay (Q00534 whole entry): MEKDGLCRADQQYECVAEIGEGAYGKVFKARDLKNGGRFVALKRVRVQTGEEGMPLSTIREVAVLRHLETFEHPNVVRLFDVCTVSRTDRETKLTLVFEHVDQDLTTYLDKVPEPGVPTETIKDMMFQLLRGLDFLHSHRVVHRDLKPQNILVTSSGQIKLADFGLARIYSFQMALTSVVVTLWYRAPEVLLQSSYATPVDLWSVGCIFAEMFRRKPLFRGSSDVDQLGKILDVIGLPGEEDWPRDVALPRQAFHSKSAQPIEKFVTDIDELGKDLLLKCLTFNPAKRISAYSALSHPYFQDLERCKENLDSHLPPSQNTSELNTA
Target sequence in this assay (Q96SW2 whole entry): as the sequence (Q96SW2 whole entry) above

[3] = target: T1, Protein cereblon/Cyclin-dependent kinase 4; assay: PROTAC activity at CDK4/CRBN in human Jurkat cells assessed as maximal protein degradation by Western blot analysis relative to control; type: cell-based
Target sequence in this assay (P11802 2-303 limits assumed): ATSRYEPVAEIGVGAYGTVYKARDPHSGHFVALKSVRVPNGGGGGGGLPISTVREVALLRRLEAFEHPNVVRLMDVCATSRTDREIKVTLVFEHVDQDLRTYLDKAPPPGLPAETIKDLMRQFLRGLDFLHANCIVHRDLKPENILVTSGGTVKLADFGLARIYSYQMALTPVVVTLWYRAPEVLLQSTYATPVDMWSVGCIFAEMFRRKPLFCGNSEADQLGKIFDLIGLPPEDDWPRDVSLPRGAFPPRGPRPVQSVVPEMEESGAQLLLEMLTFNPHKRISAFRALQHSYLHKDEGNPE
Target sequence in this assay (Q96SW2 whole entry partner): as the sequence (Q96SW2 whole entry) above

[4] = target: T2, Protein cereblon/Cyclin-dependent kinase 6; assay: PROTAC activity at CDK6/CRBN in human Jurkat cells assessed as maximal protein degradation by Western blot analysis relative to control; type: cell-based
Target sequence in this assay (Q00534 whole entry, looked up): as the sequence (Q00534 whole entry) above
Target sequence in this assay (Q96SW2 whole entry, looked up): as the sequence (Q96SW2 whole entry) above

[5] = tested on: Jurkat; assay: Anti-proliferative activity against human Jurkat cells assessed as cell growth inhibition measured after 72 hrs by CCK8 assay; type: functional, cell-based
[6] = target: T1, Protein cereblon/Cyclin-dependent kinase 4; assay: PROTAC activity at CDK4/CRBN in human Jurkat cells assessed as protein degradation at 1 to 1000 nM by Western blot analysis; type: cell-based; conditions: dose 1-1000 nM, time 3-24 hrs, TDE = time-dependent effect
Target sequence in this assay (P11802 2-303 limits assumed): as the sequence (P11802 2-303 limits assumed) above
Target sequence in this assay (Q96SW2 whole entry partner): as the sequence (Q96SW2 whole entry) above

[7] = target: T2, Protein cereblon/Cyclin-dependent kinase 6; assay: PROTAC activity at CDK6/CRBN in human Jurkat cells assessed as protein degradation at 1 to 1000 nM by Western blot analysis; type: cell-based; conditions: dose 1-1000 nM, time 3-24 hrs, TDE = time-dependent effect
Target sequence in this assay (Q00534 whole entry, looked up): as the sequence (Q00534 whole entry) above
Target sequence in this assay (Q96SW2 whole entry, looked up): as the sequence (Q96SW2 whole entry) above

[8] = target: T1, Protein cereblon/Cyclin-dependent kinase 4; assay: PROTAC activity at CDK4/CRBN in human Jurkat cells assessed as protein degradation after 3 to 24 hrs by Western blot analysis; type: cell-based; conditions: dose 1-1000 nM, time 3-24 hrs
Target sequence in this assay (P11802 2-303 limits assumed): as the sequence (P11802 2-303 limits assumed) above
Target sequence in this assay (Q96SW2 whole entry partner): as the sequence (Q96SW2 whole entry) above

[9] = target: T2, Protein cereblon/Cyclin-dependent kinase 6; assay: PROTAC activity at CDK6/CRBN in human Jurkat cells assessed as protein degradation after 3 to 24 hrs by Western blot analysis; type: cell-based; conditions: dose 1-1000 nM, time 3-24 hrs
Target sequence in this assay (Q00534 whole entry, looked up): as the sequence (Q00534 whole entry) above
Target sequence in this assay (Q96SW2 whole entry, looked up): as the sequence (Q96SW2 whole entry) above

[10] = target: T1, Protein cereblon/Cyclin-dependent kinase 4; assay: PROTAC activity at CDK4/CRBN in human Jurkat cells assessed as protein degradation at 1 uM after 12 hrs by Western blot analysis; type: cell-based
Target sequence in this assay (P11802 2-303 limits assumed): as the sequence (P11802 2-303 limits assumed) above
Target sequence in this assay (Q96SW2 whole entry partner): as the sequence (Q96SW2 whole entry) above

[11] = target: T2, Protein cereblon/Cyclin-dependent kinase 6; assay: PROTAC activity at CDK6/CRBN in human Jurkat cells assessed as protein degradation at 1 uM after 12 hrs by Western blot analysis; type: cell-based
Target sequence in this assay (Q00534 whole entry, looked up): as the sequence (Q00534 whole entry) above
Target sequence in this assay (Q96SW2 whole entry, looked up): as the sequence (Q96SW2 whole entry) above

[12] = target: Protein cereblon/Cyclin-dependent kinase 1 (Homo sapiens) (UniProt P06493+Q96SW2); assay: PROTAC activity at CDK1/CRBN in human Jurkat cells assessed as protein degradation at 1 uM measured after 24 hrs by Western blot analysis; type: cell-based
[13] = target: Protein cereblon/Cyclin-dependent kinase 2 (Homo sapiens) (UniProt P24941+Q96SW2); assay: PROTAC activity at CDK2/CRBN in human Jurkat cells assessed as protein degradation at 1 uM measured after 24 hrs by Western blot analysis; type: cell-based
[14] = target: T1, Protein cereblon/Cyclin-dependent kinase 4; assay: PROTAC activity at CDK4/CRBN in human Jurkat cells assessed as protein degradation at 1 uM measured after 24 hrs by Western blot analysis; type: cell-based
Target sequence in this assay (P11802 2-303 limits assumed): as the sequence (P11802 2-303 limits assumed) above
Target sequence in this assay (Q96SW2 whole entry partner): as the sequence (Q96SW2 whole entry) above

[15] = target: Protein cereblon/Cyclin-dependent kinase 5 (Homo sapiens) (UniProt Q00535+Q96SW2); assay: PROTAC activity at CDK5/CRBN in human Jurkat cells assessed as protein degradation at 1 uM measured after 24 hrs by Western blot analysis; type: cell-based
[16] = target: Protein cereblon/Cyclin-dependent kinase 7 (Homo sapiens) (UniProt P50613+Q96SW2); assay: PROTAC activity at CDK7/CRBN in human Jurkat cells assessed as protein degradation at 1 uM measured after 24 hrs by Western blot analysis; type: cell-based
[17] = target: Protein cereblon/Cyclin-dependent kinase 8 (Homo sapiens) (UniProt P49336+Q96SW2); assay: PROTAC activity at CDK8/CRBN in human Jurkat cells assessed as protein degradation at 1 uM measured after 24 hrs by Western blot analysis; type: cell-based
[18] = tested on: Jurkat; assay: Induction of apoptosis in human Jurkat cells assessed as apoptotic cells measured after 24 hrs by Annexin V-FITC/PI staining based analysis; type: functional, cell-based; conditions: dose 0.1-1 µM
[19] = tested on: Jurkat; assay: Cell cycle arrest in human Jurkat cells assessed as accumulation of cells at G1 phase measured after 24 hrs by flow cytometry; type: functional, cell-based; conditions: dose 0.1-1 µM
[20] = tested on: Jurkat; assay: Anti-tumor activity against human Jurkat cells assessed as increase in cleaved PARP level by Western blot analysis; type: functional, cell-based; conditions: dose 1-1000 nM
[21] = tested on: Jurkat; assay: Anti-tumor activity against human Jurkat cells assessed as increase in cleaved caspase-3 level by Western blot analysis; type: functional, cell-based; conditions: dose 1-1000 nM
[22] = tested on: Jurkat; assay: Anti-tumor activity against human Jurkat cells assessed as suppression of p-RB (Ser780) at 1 uM by Western blot analysis; type: functional, cell-based
[23] = target: Cyclin-dependent kinase 4 (Homo sapiens, UniProt P11802); assay: Inhibition of CDK4 (unknown origin)
[24] = target: Cyclin-dependent kinase 6 (Homo sapiens, UniProt Q00534); assay: Inhibition of CDK6 (unknown origin)

Chain of Protein cereblon/Cyclin-dependent kinase 5 (Homo sapiens) (Q00535 whole entry, looked up): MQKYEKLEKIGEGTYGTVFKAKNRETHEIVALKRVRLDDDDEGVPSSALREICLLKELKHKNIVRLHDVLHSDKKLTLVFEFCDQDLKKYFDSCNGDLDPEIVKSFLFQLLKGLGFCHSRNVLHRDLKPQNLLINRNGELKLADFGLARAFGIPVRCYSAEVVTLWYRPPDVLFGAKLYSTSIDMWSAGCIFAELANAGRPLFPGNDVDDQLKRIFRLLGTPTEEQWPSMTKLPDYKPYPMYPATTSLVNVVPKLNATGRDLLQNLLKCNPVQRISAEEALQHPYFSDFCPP
Chain of Protein cereblon/Cyclin-dependent kinase 5 (Homo sapiens) (Q96SW2 whole entry, looked up): as the sequence (Q96SW2 whole entry) above
Chain of Cyclin-dependent kinase 4 (P11802 whole entry): as the sequence (P11802 whole entry) above

Compound | DC50 [1] | DC50 [2] | Emax [3] | Emax [4] | other results
O=C1CCC(N2C(=O)c3cccc(NC(=O)CCCCCN4CCN(c5ccc(Nc6ncc7ncc(=O)n(C8CCCC8)c7n6)cc5)CC4)c3C2=O)C(=O)N1 (configuration not stated) | 14.9 nM | 58 nM | 95% | 85% | 
O=C(CCCCN1CCN(c2ccc(Nc3ncc4ncc(=O)n(C5CCCC5)c4n3)cc2)CC1)NCCNc1cccc2c1C(=O)N(C1CCC(=O)NC1=O)C2=O (configuration not stated) | 10.5 nM | 2.5 nM | 100% | 96% | IC50 [5]: 183 nM; Activity [6]: Tde; Activity [7]: Tde; Activity [8]: Dose-Dependent Effect; Activity [9]: Dose-Dependent Effect; Activity [10]: 100%; Activity [11]: 100%; Activity [12]: inactive; Activity [13]: inactive; Activity [14]: inactive; Activity [15]: inactive; Activity [16]: inactive; Activity [17]: inactive; Activity [18]: Dose-Dependent Effect; Activity [19]: Dose-Dependent Effect; Activity [20]: Dose-Dependent Effect; Activity [21]: Dose-Dependent Effect; Activity [22]: Active
O=C1CCC(N2C(=O)c3cccc(NC(=O)CCCCCn4cc(CN5CCN(c6ccc(Nc7ncc8ncc(=O)n(C9CCCC9)c8n7)cc6)CC5)nn4)c3C2=O)C(=O)N1 (configuration not stated) | > 1000 nM | 16.3 nM | 42% | 95% | 
O=C(CN1CCN(c2ccc(Nc3ncc4ncc(=O)n(C5CCCC5)c4n3)cc2)CC1)NCCCCNc1cccc2c1C(=O)N(C1CCC(=O)NC1=O)C2=O (configuration not stated) | > 1000 nM | > 1000 nM | 14% | 40% | 
CC(=O)c1c(C)c2cnc(Nc3ccc(N4CCNCC4)cn3)nc2n(C2CCCC2)c1=O [PALBOCICLIB] |  |  |  |  | IC50 [5]: 1500 nM
O=C1CCC(N2C(=O)c3cccc(NC(=O)CCCCCCN4CCN(c5ccc(Nc6ncc7ncc(=O)n(C8CCCC8)c7n6)cc5)CC4)c3C2=O)C(=O)N1 (configuration not stated) | > 1000 nM | 6.6 nM | 41% | 95% | 
O=C1CCC(N2C(=O)c3cccc(NC(=O)CCCCCCC(=O)N4CCN(c5ccc(Nc6ncc7ncc(=O)n(C8CCCC8)c7n6)cc5)CC4)c3C2=O)C(=O)N1 (configuration not stated) | 434 nM | 43.3 nM | 60% | 92% | 
O=C1CCC(N2C(=O)c3ccc(N4CCN(CC5CCN(C(=O)CN6CCN(c7ccc(Nc8ncc9ncc(=O)n(C%10CCCC%10)c9n8)cc7)CC6)CC5)CC4)cc3C2=O)C(=O)N1 (configuration not stated) | 138 nM | 2.3 nM | 68% | 90% | 
O=C1CCC(N2C(=O)c3cccc(NCCOCCOCCN4CCN(c5ccc(Nc6ncc7ncc(=O)n(C8CCCC8)c7n6)cc5)CC4)c3C2=O)C(=O)N1 (configuration not stated) | 557 nM | 5.3 nM | 53% | 94% | 
O=C1CCC(N2C(=O)c3cccc(NCCOCCN4CCN(c5ccc(Nc6ncc7ncc(=O)n(C8CCCC8)c7n6)cc5)CC4)c3C2=O)C(=O)N1 (configuration not stated) | 162 nM | 93 nM | 60% | 91% | 
O=C1CCC(N2C(=O)c3ccc(N4CCN(C(=O)CN5CCN(c6ccc(Nc7ncc8ncc(=O)n(C9CCCC9)c8n7)cc6)CC5)CC4)cc3C2=O)C(=O)N1 (configuration not stated) | 9.8 nM | 3.9 nM | 75% | 86% | 
O=c1cnc2cnc(Nc3ccc(N4CCNCC4)cc3)nc2n1C1CCCC1 |  |  |  |  | IC50 [5]: 1470 nM; IC50 [23]: 7.7 nM; IC50 [24]: 88 nM
